Results: patent US20230150979A1, “AMIDE-DISUBSTITUTED PYRIDINE OR PYRIDAZINE COMPOUNDS” (BRISTOL-MYERS SQUIBB COMPANY, priority 2019, published 2023)

System: IFNα-induced STAT phosphorylation (pSTAT5) in human whole blood, CD3 positive population
Assay: IFNα-Induced STAT Phosphorylation in Human Whole Blood
Format: cell-based
Conditions: 1 h incubation with compound, 1000 U/mL recombinant human IFNα A/D for 15 min, pSTAT5 (pY694) median fluorescence in CD3 positive cells, read-out: Human WB IFNα-Induced Stat Phosph. (IC50)
Protocol: IFNα-Induced STAT Phosphorylation in Human Whole Blood
After an hour long incubation with compound, human whole blood (drawn with either EDTA or ACD-A as anti-coagulant) was stimulated with 1000 U/mL recombinant human IFNα A/D (R&D Systems 11200-2) for 15 min. The stimulation was stopped by adding Fix/Lyse buffer (BD 558049). Cells were stained with a CD3 FITC antibody (BD 555916), washed, and permeabilized on ice using Perm III buffer (BD 558050). Cells were then stained with an Alexa-Fluor 647 pSTAT5 (pY694) antibody (BD 612599) for 30 min prior to analysis on the FACS Canto II. The amount of pSTAT5 expression was quantitated by median fluorescence intensity after gating on the CD3 positive population.

| Compound | IC50 [nM] |
| --- | --- |
| [2H]C([2H])([2H])NC(=O)c1nnc(NC(=O)NC(C)CC)cc1Nc1cccc(-c2ncn(C)n2)c1OC (stereo not drawn) [Example 48] | 200 |
| [2H]C([2H])([2H])NC(=O)c1nnc(NC(=O)N(C)Cc2ccco2)cc1Nc1cccc(-c2ncn(C)n2)c1OC [Example 49] | 190 |
| [2H]C([2H])([2H])NC(=O)c1cnc(NC(=O)OCCC)cc1Nc1cccc(-c2ncn(C)n2)c1OC [Example 50] | 150 |
| [2H]C([2H])([2H])NC(=O)c1nnc(NC(=O)OC)cc1Nc1ccccc1NS(C)(=O)=O [Example 52] | > 10000 |
| [2H]C([2H])([2H])NC(=O)c1nnc(NC(=O)OC)cc1Nc1cccc(-c2ncc(C(=O)N(C)C)s2)c1OC [Example 53] | 840 |
| [2H]C([2H])([2H])NC(=O)c1nnc(NC(=O)OC)cc1Nc1cccc(-c2ncc(C(=O)N3CCC3)s2)c1OC [Example 55] | 760 |
| [2H]C([2H])([2H])NC(=O)c1nnc(NC(=O)OC)cc1Nc1cccc(-c2ncc(C(=O)N3CCC(N4CCN(CCO)CC4)CC3)s2)c1OC [Example 57] | 250 |
| [2H]C([2H])([2H])NC(=O)c1nnc(NC(=O)OC)cc1Nc1cccc(-c2noc(CO)n2)c1OC [Example 58] | 1860 |
| [2H]C([2H])([2H])NC(=O)c1nnc(NC(=O)OC)cc1Nc1cccc(-c2noc(CN(C)S(C)(=O)=O)n2)c1OC [Example 62] | 100 |
| [2H]C([2H])([2H])NC(=O)c1nnc(NC(=O)OC)cc1Nc1cccc(-c2noc(C)n2)c1OC [Example 63] | 970 |
| [2H]C([2H])([2H])NC(=O)c1nnc(NC(=O)OC)cc1Nc1cccc(-c2noc(CN3CCN(C(=O)OC)CC3)n2)c1OC [Example 65] | 330 |
| [2H]C([2H])([2H])NC(=O)c1nnc(NC(=O)OC)cc1Nc1cccc(-c2noc(CCS(C)(=O)=O)n2)c1OC [Example 69] | 1030 |
| [2H]C([2H])([2H])NC(=O)c1cnc(NC(=O)OC)cc1Nc1cccc(-c2noc(CN3CCOCC3)n2)c1OC [Example 71] | 300 |
| [2H]C([2H])([2H])NC(=O)c1cnc(NC(=O)NCC)cc1Nc1cccc(-c2noc(C)n2)c1OC [Example 72] | 140 |
| [2H]C([2H])([2H])NC(=O)c1cnc(NC(=O)OC)cc1Nc1cccc(-c2noc(C)n2)c1OC [Example 73] | 770 |
| [2H]C([2H])([2H])NC(=O)c1cnc(NC(=O)NC)cc1Nc1cccc(-c2noc(C)n2)c1OC [Example 74] | 210 |
| [2H]C([2H])([2H])NC(=O)c1nnc(NC(=O)NCCN(C)C)cc1Nc1cccc(-c2ncn(C)n2)c1OC [Example 75] | 470 |
| [2H]C([2H])([2H])NC(=O)c1cnc(NC(=O)NCCOC)cc1Nc1cccc(-c2noc(C)n2)c1OC [Example 76] | 160 |
| [2H]C([2H])([2H])NC(=O)c1nnc(NC(=O)NC2CC2)cc1Nc1cccc(-c2noc(C)n2)c1OC [Example 77] | 210 |

Other lines, results leading:

| IC50 [nM] | Compound |
| --- | --- |
| 90 | COC(=O)Nc1cc(Nc2cccc(-c3noc(CN(C)S(C)(=O)=O)n3)c2OC)c(C(N)=O)nn1 [Example 51] |
| 30 | COC(=O)Nc1cc(Nc2cccc(-c3noc(CN4CCCCS4(=O)=O)n3)c2OC)c(C(N)=O)nn1 [Example 54] |
| 110 | COC(=O)Nc1cc(Nc2cccc(-c3noc(CN4CCOCC4)n3)c2OC)c(C(N)=O)nn1 [Example 56] |
| 290 | [2H]C([2H])([2H])NC(=O)c1nnc(NC(=O)OC)cc1Nc1cccc(-c2noc(CN3CCOCC3)n2)c1OC [Example 59] |
| 140 | COC(=O)Nc1cc(Nc2cccc(-c3noc(CN4CCN(C(=O)OC)CC4)n3)c2OC)c(C(N)=O)nn1 [Example 60] |
| 60 | [2H]C([2H])([2H])NC(=O)c1nnc(NC(=O)OC)cc1Nc1cccc(-c2noc(CN3CCCCS3(=O)=O)n2)c1OC [Example 61] |
| 100 | COC(=O)Nc1cc(Nc2cccc(-c3noc(CN4CCN(S(C)(=O)=O)CC4)n3)c2OC)c(C(N)=O)nn1 [Example 64] |
| 130 | [2H]C([2H])([2H])NC(=O)c1nnc(NC(=O)OC)cc1Nc1cccc(-c2noc(CN3CCN(S(C)(=O)=O)CC3)n2)c1OC [Example 66] |
| 270 | COC(=O)Nc1cc(Nc2cccc(-c3noc(C)n3)c2OC)c(C(N)=O)nn1 [Example 67] |
| 200 | [2H]C([2H])([2H])NC(=O)c1nnc(NC(=O)OC)cc1Nc1cccc(-c2noc(CN3CCCS3(=O)=O)n2)c1OC [Example 68] |
| 1150 | [2H]C([2H])([2H])NC(=O)c1nnc(NC(=O)OC)cc1Nc1cccc(-c2noc(CN3CCOC3=O)n2)c1OC [Example 70] |
